Source: ChEMBL document CHEMBL1154013, “Brain-penetrating 2-aminobenzimidazole H(1)-antihistamines for the treatment of insomnia” (Bioorg Med Chem Lett, 2009)

Legend:
Cytochrome P450 2D6 = Cytochrome P450 2D6 (Homo sapiens, UniProt P10635); experiment: Inhibition of CYP2D6; assay type: ADME
Histamine H1 receptor = Histamine H1 receptor (Homo sapiens, UniProt P35367); experiment: Displacement of [3H]pyrilamine from human histamine H1 receptor expressed in CHO Flp-In cells by liquid scintillation assay; assay type: cell-based
Sequence of Histamine H1 receptor (P35367 whole entry): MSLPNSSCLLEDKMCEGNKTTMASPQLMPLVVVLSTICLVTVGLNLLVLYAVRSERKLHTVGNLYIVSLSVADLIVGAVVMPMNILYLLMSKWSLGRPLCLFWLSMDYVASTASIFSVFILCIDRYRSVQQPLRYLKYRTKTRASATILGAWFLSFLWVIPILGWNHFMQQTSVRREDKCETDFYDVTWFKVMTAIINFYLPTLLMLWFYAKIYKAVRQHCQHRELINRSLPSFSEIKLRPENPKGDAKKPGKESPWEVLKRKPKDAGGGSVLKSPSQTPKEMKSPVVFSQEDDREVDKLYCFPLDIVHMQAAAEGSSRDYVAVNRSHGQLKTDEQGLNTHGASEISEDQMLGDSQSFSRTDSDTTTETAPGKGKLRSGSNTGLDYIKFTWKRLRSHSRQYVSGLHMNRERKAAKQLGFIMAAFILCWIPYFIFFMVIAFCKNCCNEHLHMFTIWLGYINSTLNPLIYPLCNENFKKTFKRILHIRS

[1] = biological target: T1, Muscarinic acetylcholine receptor M1 (Homo sapiens, UniProt P11229); experiment: Displacement of [3H]N-methyl Scopolamine from human muscarinic M1 receptor expressed in CHO Flp-In cells by liquid scintillation assay; assay type: cell-based
T1 sequence (P11229 whole entry): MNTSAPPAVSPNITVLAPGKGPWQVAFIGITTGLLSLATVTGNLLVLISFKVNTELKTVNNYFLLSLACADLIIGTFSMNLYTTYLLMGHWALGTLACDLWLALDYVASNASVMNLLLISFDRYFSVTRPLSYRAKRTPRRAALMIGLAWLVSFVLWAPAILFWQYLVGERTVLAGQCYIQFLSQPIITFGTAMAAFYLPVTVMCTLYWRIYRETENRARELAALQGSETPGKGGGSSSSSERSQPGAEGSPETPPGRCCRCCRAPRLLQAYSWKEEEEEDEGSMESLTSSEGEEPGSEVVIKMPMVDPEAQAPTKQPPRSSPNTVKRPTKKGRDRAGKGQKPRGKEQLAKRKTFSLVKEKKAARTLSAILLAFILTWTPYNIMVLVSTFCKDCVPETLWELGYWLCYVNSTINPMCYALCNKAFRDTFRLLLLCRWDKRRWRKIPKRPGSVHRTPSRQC

Homo sapiens = species: Homo sapiens; experiment: Selectivity for human muscarinic M1 receptor over human histamine H1 receptor
Cytochrome P450 3A4 = Cytochrome P450 3A4 (Homo sapiens, UniProt P08684); experiment: Inhibition of CYP3A4; assay type: ADME
Sequence of Cytochrome P450 3A4 (P08684 whole entry): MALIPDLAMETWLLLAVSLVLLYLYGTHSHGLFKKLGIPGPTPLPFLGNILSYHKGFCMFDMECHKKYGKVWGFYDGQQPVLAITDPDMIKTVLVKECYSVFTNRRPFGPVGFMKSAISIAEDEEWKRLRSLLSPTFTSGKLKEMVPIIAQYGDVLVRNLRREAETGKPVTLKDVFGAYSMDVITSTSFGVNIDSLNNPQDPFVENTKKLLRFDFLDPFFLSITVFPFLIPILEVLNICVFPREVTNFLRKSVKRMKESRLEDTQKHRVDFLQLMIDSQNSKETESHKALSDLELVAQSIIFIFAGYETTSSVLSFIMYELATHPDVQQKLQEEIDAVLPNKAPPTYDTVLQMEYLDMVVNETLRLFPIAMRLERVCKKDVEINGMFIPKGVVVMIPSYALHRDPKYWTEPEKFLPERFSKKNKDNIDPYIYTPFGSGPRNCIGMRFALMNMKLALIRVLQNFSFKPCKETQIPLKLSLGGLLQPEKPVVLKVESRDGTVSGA

[2] = biological target: T2, Voltage-gated inwardly rectifying potassium channel KCNH2 (Homo sapiens, UniProt Q12809); experiment: Displacement of [3H]dofetolide from human ERG channel expressed in HEK293 cells at 37 degC by liquid scintillation assay; assay type: cell-based
T2 sequence (Q12809 whole entry): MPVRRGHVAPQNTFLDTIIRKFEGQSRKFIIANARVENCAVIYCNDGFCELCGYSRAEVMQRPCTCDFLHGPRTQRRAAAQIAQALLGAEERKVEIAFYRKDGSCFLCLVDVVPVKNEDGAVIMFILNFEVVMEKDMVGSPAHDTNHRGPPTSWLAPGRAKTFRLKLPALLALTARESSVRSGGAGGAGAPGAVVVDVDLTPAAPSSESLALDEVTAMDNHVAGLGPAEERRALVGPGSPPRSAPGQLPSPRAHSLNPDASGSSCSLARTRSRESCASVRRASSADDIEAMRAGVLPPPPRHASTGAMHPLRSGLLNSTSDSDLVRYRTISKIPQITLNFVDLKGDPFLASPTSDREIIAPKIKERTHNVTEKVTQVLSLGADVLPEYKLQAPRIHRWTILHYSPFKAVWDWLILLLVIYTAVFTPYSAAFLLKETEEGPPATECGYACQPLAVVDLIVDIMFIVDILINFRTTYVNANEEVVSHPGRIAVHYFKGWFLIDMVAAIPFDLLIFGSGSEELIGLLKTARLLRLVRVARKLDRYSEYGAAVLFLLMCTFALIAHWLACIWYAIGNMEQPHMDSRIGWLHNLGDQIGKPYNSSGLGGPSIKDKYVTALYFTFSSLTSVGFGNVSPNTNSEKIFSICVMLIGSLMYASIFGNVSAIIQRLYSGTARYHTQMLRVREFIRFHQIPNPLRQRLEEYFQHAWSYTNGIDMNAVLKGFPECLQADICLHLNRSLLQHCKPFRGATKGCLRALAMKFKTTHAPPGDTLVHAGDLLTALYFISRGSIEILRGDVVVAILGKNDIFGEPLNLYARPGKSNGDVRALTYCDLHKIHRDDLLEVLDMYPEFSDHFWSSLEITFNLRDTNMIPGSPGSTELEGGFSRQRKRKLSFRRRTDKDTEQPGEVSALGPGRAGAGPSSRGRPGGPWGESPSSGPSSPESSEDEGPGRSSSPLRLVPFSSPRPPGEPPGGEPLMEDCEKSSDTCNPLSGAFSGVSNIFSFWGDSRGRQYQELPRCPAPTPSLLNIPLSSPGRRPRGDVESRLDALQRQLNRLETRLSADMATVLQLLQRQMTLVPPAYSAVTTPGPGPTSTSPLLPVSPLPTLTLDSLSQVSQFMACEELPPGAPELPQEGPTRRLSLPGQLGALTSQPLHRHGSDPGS

Caco-2 = experiment: Ratio of permeability from apical to basolateral side to basolateral to apical side in human Caco-2 cells; assay type: ADME, cell-based
[3] = Apparent permeability across human Caco-2 cell membrane; assay type: ADME, cell-based
Brain [4] = experiment: Biodistribution in rat brain at 1 mg/kg, iv after 2 hrs in presence of triprolidine; assay type: ADME, organism-based; design: dose 1 mg/kg, route intravenous; conditions: in vivo
Brain [5] = experiment: Biodistribution in rat brain assessed per gram of tissue at 1 mg/kg, iv after 2 hrs; assay type: ADME, organism-based; design: dose 1 mg/kg, route intravenous; conditions: in vivo
[6] = Ratio of drug level in brain to plasma in rat at 1 mg/kg, iv after 2 hrs; assay type: ADME, organism-based; design: dose 1 mg/kg, route intravenous
Plasma = experiment: Drug level in rat plasma assessed per gram of tissue at 1 mg/kg, iv after 2 hrs; assay type: ADME, organism-based; design: dose 1 mg/kg, route intravenous; conditions: in vivo
[7] = Ratio of drug level in brain to plasma in rat at 30 mg/kg, po after 4 hrs; assay type: ADME, organism-based; design: dose 30 mg/kg, route oral
[8] = biological target: T2, Voltage-gated inwardly rectifying potassium channel KCNH2; experiment: Inhibition of human ERG channel expressed in HEK293 cells by patch clamp assay; assay type: cell-based
Rattus norvegicus [9] = experiment: Antihistamine activity in Wistar rat EEG/EMG model assessed as increase in time spent in non rapid eye movement sleep stage at 30 mg/kg, po administered during activity portion of diurnal cycle 6 hrs after lights-off measured in 4 hrs; assay type: functional
Rattus norvegicus [10] = experiment: Antihistamine activity in Wistar rat EEG/EMG model assessed as non rapid eye movement sleep stage latency at 30 mg/kg, po administered during activity portion of diurnal cycle 6 hrs after lights-off measured in 4 hrs; assay type: functional
Rattus norvegicus [11] = experiment: Antihistamine activity in Wistar rat EEG/EMG model assessed as rapid eye movement sleep stage latency at 30 mg/kg, po administered during activity portion of diurnal cycle 6 hrs after lights-off measured in 4 hrs; assay type: functional
Rattus norvegicus [12] = experiment: Antihistamine activity in Wistar rat EEG/EMG model assessed as longest 3 REM bouts at 30 mg/kg, po administered during activity portion of diurnal cycle 6 hrs after lights-off measured in 6 hrs; assay type: functional
Rattus norvegicus [13] = experiment: Antihistamine activity in Wistar rat EEG/EMG model assessed as rapid eye movement sleep stage at 30 mg/kg, po administered during activity portion of diurnal cycle 6 hrs after lights-off measured in 4 hrs; assay type: functional
[14] = Bioavailability in Sprague-Dawley rat at 5 mg/kg, iv; assay type: ADME, organism-based; conditions: in vivo, read-out: Drug uptake
[15] = Clearance in Sprague-Dawley rat at 10 mg/kg, po; assay type: ADME, organism-based; design: dose 10 mg/kg, route oral; conditions: in vivo
Rattus norvegicus [16] = experiment: Antihistamine activity in Wistar rat EEG/EMG model assessed as longest 3 NREM bouts at 30 mg/kg, po administered during activity portion of diurnal cycle 6 hrs after lights-off measured in 6 hrs; assay type: functional
Brain [17] = experiment: Biodistribution in Sprague-Dawley rat brain at 10 mg/kg, po assessed per gram of tissue after 4 hrs; conditions: in vivo
[18] = Ratio of drug level in brain to plasma in rat at 10 mg/kg, po after 4 hrs; assay type: ADME, organism-based; design: dose 10 mg/kg, route oral
[19] = Drug level in Sprague-Dawley rat plasma at 10 mg/kg, po after 4 hrs; conditions: read-out: Drug uptake

Sequence of Cytochrome P450 2D6 (P10635 whole entry): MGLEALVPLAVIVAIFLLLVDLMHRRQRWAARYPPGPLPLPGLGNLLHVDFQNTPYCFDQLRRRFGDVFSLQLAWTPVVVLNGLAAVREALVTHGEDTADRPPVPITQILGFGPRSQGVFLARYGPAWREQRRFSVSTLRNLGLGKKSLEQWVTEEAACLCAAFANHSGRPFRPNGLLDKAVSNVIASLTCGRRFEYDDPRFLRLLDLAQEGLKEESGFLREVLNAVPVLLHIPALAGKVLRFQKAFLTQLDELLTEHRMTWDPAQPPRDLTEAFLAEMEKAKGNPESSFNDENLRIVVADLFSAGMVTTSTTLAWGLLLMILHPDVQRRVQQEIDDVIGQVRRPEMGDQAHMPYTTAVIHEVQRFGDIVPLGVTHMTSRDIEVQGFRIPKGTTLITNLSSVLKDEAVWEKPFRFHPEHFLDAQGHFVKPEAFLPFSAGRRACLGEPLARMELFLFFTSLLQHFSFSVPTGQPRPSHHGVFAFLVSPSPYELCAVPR

SMILES	Ki (Histamine H1 receptor; read-out: Ki)	Selectivity ratio (Homo sapiens)	IC50 (Cytochrome P450 3A4)	IC50 (Cytochrome P450 2D6; read-out: IC50)	Ki [2]	further results
CN(CCc1ccccc1)C1CCN(c2nc3ccccc3n2Cc2ccc(F)cc2)CC1	0.0024 µM	–	–	–	–	IC50 (Cytochrome P450 2D6): 0.502 µM; Ki ([1]; read-out: Ki): 0.089 µM
Fc1ccc(Cn2c(N3CCC(n4cccc4)CC3)nc3ccccc32)cc1	0.0593 µM	> 1000	> 5 µM	1.53 µM	0.157 µM	–
CN(C)CCN(C)C1CCN(c2nc3ccccc3n2Cc2ccc(F)cc2)CC1	0.0029 µM	> 1000	> 5 µM	6.13 µM	0.776 µM	–
COc1ccc(Cn2c(N3CCC(NCC4CCOCC4)CC3)nc3ccccc32)cc1	0.0141 µM	> 1000	> 5 µM	16.3 µM	1.46 µM	–
COc1ccc(Cn2c(N3CCC(N(C)C)CC3)nc3ccccc32)cc1	0.0024 µM	–	> 5 µM	6.07 µM	–	–
O=C1CCCCN1C1CCN(c2nc3ccccc3n2Cc2ccc(F)cc2)CC1	0.0066 µM	> 1000	> 5 µM	4.35 µM	> 7.5 µM	Ratio (Caco-2): 0.6; Papp [3]: 124 nm/s
CN(Cc1ccccc1)C1CCN(c2nc3ccccc3n2Cc2ccc(F)cc2)CC1	0.0036 µM	–	–	–	–	IC50 (Cytochrome P450 2D6): 0.805 µM; Ki ([1]; read-out: Ki): 3.58 µM
CN(C)C1CCN(c2nc3ccccc3n2Cc2ccc(F)cc2)CC1	0.0018 µM	> 1000	> 5 µM	12.8 µM	0.057 µM	Drug uptake (Brain [4]): 55.3 ng; Drug uptake (Brain [5]): 50 ng/g; Kp at 2 h [6]: 4.6; Drug uptake (Plasma): 10.9 ng/g
COc1ccc(Cn2c(N3CCC(N(C)CC4CCOCC4)CC3)nc3ccccc32)cc1	0.0141 µM	> 1000	> 5 µM	8.18 µM	0.102 µM	–
Cc1ccc(/C(=C\CN2CCCC2)c2ccccn2)cc1 [TRIPROLIDINE]	–	–	–	–	–	Drug uptake (Brain [4]): 55.6 ng; Drug uptake (Brain [5]): 55.6 ng/g; Kp at 2 h [6]: 4.5; Drug uptake (Plasma): 7.1 ng/g
CNC1CCN(c2nc3ccccc3n2Cc2ccc(F)cc2)CC1	0.0024 µM	–	–	–	–	IC50 (Cytochrome P450 2D6): 6.66 µM; Ki ([1]; read-out: Ki): 0.988 µM
Fc1ccc(Cn2c(N3CCC(NCC4CCOCC4)CC3)nc3ccccc32)cc1	0.0045 µM	> 1000	> 5 µM	12.1 µM	0.426 µM	–
COc1ccc(Cn2c(N3CCC(n4cc(C)cn4)CC3)nc3ccccc32)cc1	0.0071 µM	> 1000	> 5 µM	7.32 µM	> 5 µM	–
CN(CCO)C1CCN(c2nc3ccccc3n2Cc2ccc(F)cc2)CC1	0.0032 µM	> 1000	> 5 µM	35.1 µM	0.116 µM	–
Cc1cnn(C2CCN(c3nc4ccccc4n3Cc3ccc(F)cc3)CC2)c1	–	–	–	–	–	Kp at 4 h [7]: 2.3
CN(c1nccc(=O)[nH]1)C1CCN(c2nc3ccccc3n2Cc2ccc(F)cc2)CC1 [MIZOLASTINE]	0.0027 µM	–	–	–	7.26 µM	Drug uptake (Brain [4]): 55.6 ng; IC50 (Cytochrome P450 2D6): > 20 µM; Drug uptake (Brain [5]): 0 ng/g; Ki ([1]; read-out: Ki): > 10 µM; Drug uptake (Plasma): 6.3 ng/g; IC50 [8]: 0.441 µM
CN(C1CCOCC1)C1CCN(c2nc3ccccc3n2Cc2ccc(F)cc2)CC1	–	–	–	6.36 µM	–	Drug uptake (Brain [4]): 39.4 ng; Drug uptake (Brain [5]): 55 ng/g; Ki (Histamine H1 receptor): 0.0033 µM; Kp at 2 h [6]: 3.5; Ki [1]: 14.7 µM; Drug uptake (Plasma): 18.1 ng/g
CN(c1ncccn1)C1CCN(c2nc3ccccc3n2Cc2ccc(F)cc2)CC1	0.0752 µM	–	–	–	–	IC50 (Cytochrome P450 2D6): 1.04 µM; Ki ([1]; read-out: Ki): > 10 µM
Cc1ccc(-c2nc3ccc(C)cn3c2CC(=O)N(C)C)cc1 [ZOLPIDEM]	–	–	–	–	–	Activity (Rattus norvegicus [9]): 48.3%; Time (Rattus norvegicus [10]): 7 min; Time (Rattus norvegicus [11]): 186 min; Time (Rattus norvegicus [12]): 1.4 min; Activity (Rattus norvegicus [13]): 0.4%
Fc1ccc(Cn2c(N3CCC(n4ccnc4)CC3)nc3ccccc32)cc1	0.0013 µM	> 1000	0.072 µM	1.12 µM	0.137 µM	–
COCCN(C)C1CCN(c2nc3ccccc3n2Cc2ccc(F)cc2)CC1	0.0022 µM	–	> 5 µM	4.44 µM	–	–
CN(CC1CCOCC1)C1CCN(c2nc3ccccc3n2Cc2ccc(F)cc2)CC1	–	–	> 5 µM	11 µM	–	Activity (Rattus norvegicus [9]): 47.2%; Drug uptake (Brain [4]): 39.4 ng; bioavailability [14]: 2%; Time (Rattus norvegicus [10]): 21 min; Time (Rattus norvegicus [11]): 110 min; CL/F [15]: 8.04 L/h/kg; Time (Rattus norvegicus [12]): 0.5 min; Time (Rattus norvegicus [16]): 11 min; Drug uptake (Brain [17]): 94 ng/g; Kp at 4 h [18]: 10; Drug uptake (Brain [5]): 104 ng/g; Kp at 2 h [6]: 6.3; concentration at 4 h [19]: 9 ng/mL; Drug uptake (Plasma): 19.2 ng/g; Activity (Rattus norvegicus [13]): 2.6%
Fc1ccc(Cn2c(N3CCC(n4cccn4)CC3)nc3ccccc32)cc1	0.0183 µM	–	> 5 µM	1.48 µM	–	–
CN(c1ccccc1)C1CCN(c2nc3ccccc3n2Cc2ccc(F)cc2)CC1	–	–	–	> 20 µM	–	Ki (Histamine H1 receptor): 0.0805 µM; Ki [1]: > 10 µM
CN(C1CCCCC1)C1CCN(c2nc3ccccc3n2Cc2ccc(F)cc2)CC1	0.0028 µM	–	–	–	–	IC50 (Cytochrome P450 2D6): 2.05 µM; Ki ([1]; read-out: Ki): 2.74 µM
Cc1ccc(Cn2c(N3CCC(N(C)C)CC3)nc3ccccc32)cc1	0.0015 µM	> 1000	> 5 µM	7.21 µM	0.073 µM	–
CN(CC1CCCCC1)C1CCN(c2nc3ccccc3n2Cc2ccc(F)cc2)CC1	–	–	–	0.36 µM	–	Ki (Histamine H1 receptor): 0.0044 µM; Ki [1]: 3.86 µM
